In assay [1] the test system is secreted IL-8 by whole blood activated with TNF-α. The experiment in a line: Inhibition of TNF-α induced IL-8 in 50% human whole blood. The assay is classed as cell-based. The conditions noted are these: TNF-α (1 nM) induced IL-8, 50% human whole blood, read-out: WB TNF/IL8 IC50. As to the method:
Inhibition of TNF-α Induced IL-8 in 50% Human Whole Blood
Test compounds were evaluated in vitro for the ability to inhibit the production of secreted IL-8 by whole blood activated with TNF-α. Fresh human whole blood was obtained from healthy, non-medicated volunteers in sodium heparin tubes.
Compound Dilution—Assay Procedure
100 ul heparinized whole blood is plated into wells of 96 well flat bottom plates. 50 ul of either 4× compound or DMSO control (Final DMSO concentration is 0.1%) are added to the appropriate wells. Plates are incubated for 1 hour at 37 degrees Celsius. 50 ul of 4×TNF-α ([…], for a final concentration of 1 nM) or control (media alone) is added to the appropriate wells (Total volume=200 ul). Plates are incubated overnight (16-18 hours). 100 ul of supernatant is collected and stored in 96-well round bottom polypropylene plates at −80 degrees Celsius or assayed immediately for IL-8.
Cytokines are measured on antibody (Ab) sandwich ECL based 96-well detection plates. 20 ul of supernatant are added to plate and plate is sealed and shaken at RT for 1 hour. 130 ul of detection Ab cocktail is added and plates are sealed and shaken for 1 hour in the dark at RT. Plates are read on MSD Sector HTS instrument. Data are analyzed and IC50 values generated using Activity Base and XI-fit programs.

Assay [2] has as its system TNF-α secretion by LPS-treated THP1 cells. Put plainly: Lipopolysaccharide-activated THP1 cell TNF production assay. The assay is classed as cell-based. To be noted: Homo sapiens, THP-1; LPS, 3 hours, THP1 cells; read-out: IC50 in the THP-1 cellular TNF production assay. The protocol: Lipopolysaccharide-Activated THP1 Cell TNF Production Assay
THP1 cells were resuspended in fresh THP1 media (RPMI 1640, 10% heat-inactivated FBS, 1×PGS, 1×NEAA, plus 30 μM βME) at a concentration of 1.5×10^6 cells per mL. One hundred microliters of cells per well were plated in a polystyrene 96-well tissue culture plate. 1.5 micrograms per mL of bacterial LPS was prepared in THP1 media and transferred to the first 11 columns of a 96-well polypropylene plate. Column 12 contained only THP1 media for the LO control. Compounds were dissolved in 100% DMSO and serially diluted 3 fold in a polypropylene 96-well microtiter plate (drug plate). Columns 6 and 12 were reserved as controls (HI controls and LO controls respectively) and contained only DMSO. 10 μL of LPS followed by one microliter of inhibitor compound from the drug plate was transferred to the cell plate. The treated cells were induced to synthesize and secrete TNF-α in a 37° C. humidified incubator with 5% CO2 for 3 hours. Fifty microliters of conditioned media was transferred to a 96-well MULTI-ARRAY™ 96-well small spot plate—custom coated with MAB610 containing 100 μL of 2× Read Buffer P supplemented with 0.34 nM AF210NA polyclonal Ab labeled with ruthenium (MSD-Sulfo-TAG™-NHS ester). After an overnight incubation at room temperature with shaking, the reaction was read on the Sector Imager™ 6000. […] The amount of secreted TNF-α in the presence of AMG compounds compared with that in the presence of DMSO vehicle alone (HI control) was calculated using the formula: % control (POC)=(cpd−average LO)/(average HI−averageLO)*100. Data (consisting of POC and inhibitor concentration in μM) was fitted to a 4-parameter equation (y=A+((B−A)/(1+((x/C)^D))), where A is the minimum y (POC) value, B is the maximum y (POC), C is the x (cpd concentration) at the point of inflection and D is the slope factor) using a Levenburg-Marquardt non-linear regression algorithm.

For the next assay, the target named is recombinant human p38α (Homo sapiens, UniProt Q16539). Put plainly: Purified and activated recombinant human p38α HTRF kinase assay. To be noted: 1 nM p38α, 50 μM ATP, GST-ATF2 substrate, read-out: p38a IC50. The assay is classed as biochemical. The protocol: Purified and Activated Recombinant Human p38α Assay
recombinant human p38α, sequence (Q16539 whole entry): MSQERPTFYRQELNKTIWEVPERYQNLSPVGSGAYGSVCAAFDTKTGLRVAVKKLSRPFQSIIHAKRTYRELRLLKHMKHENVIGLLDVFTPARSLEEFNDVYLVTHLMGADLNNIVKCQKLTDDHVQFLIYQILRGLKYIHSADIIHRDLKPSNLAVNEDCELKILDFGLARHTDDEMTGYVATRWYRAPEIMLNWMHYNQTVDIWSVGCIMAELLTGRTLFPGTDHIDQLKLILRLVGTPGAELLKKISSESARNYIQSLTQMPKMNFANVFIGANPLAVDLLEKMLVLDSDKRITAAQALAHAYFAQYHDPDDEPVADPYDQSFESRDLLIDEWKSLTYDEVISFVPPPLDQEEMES
• Kinase Reaction Buffer: Kinase reaction buffer for p38α HTRF assays consists of 50 mM Tris-pH 7.5, 5 mM MgCl2, 0.1 mg/mL BSA, 100 μM Na3VO4 and 0.5 mM DTT. • HTRF Detection Buffer: HTRF detection buffer contains 100 mM HEPES-pH 7.5, 100 mM NaCl, 0.1% BSA, 0.05% Tween-20, and 10 mM EDTA. • Serial Dilution of Compounds: Compounds were dissolved in 100% DMSO and serially diluted (3 fold, 10 point) in a polypropylene 96-well microtiter plate (drug plate). The final starting concentration of compounds in the p38α enzymatic assays was 1 μM. Columns 6 and 12 (HI controls and LO controls respectively) in the drug plate were reserved as controls and contained only DMSO. • Kinase Reaction The p38α kinase reactions were carried out in a polypropylene 96-well black round bottom assay plate in total volume of 30 μL kinase reaction buffer. Appropriate concentration of purified and activated enzyme (recombinant human) was mixed with indicated concentration of ATP and 100 nM GST-ATF2-Avitag, in the presence or absence (HI control) of Compound. See table below for actual concentrations. In the absence of substrate, the background was measured as LO control. The reaction was allowed to incubate for 1 hour at RT. • Assay Reagent Concentrations: The final reagent concentrations were 1 nM p38α and 50 μM ATP. […] After 60 minutes incubation at room temperature, the assay plate was read in a Discovery Plate Reader. The wells were excited with coherent 320 nm light and the ratio of delayed ([…] post excitation) emissions at […] (native europium fluorescence) and 665 nm (europium fluorescence transferred to allophycocyanin—an index of substrate phosphorylation) was determined (Park et al, 1999). • Data Analysis: The proportion of substrate phosphorylated in the kinase reaction in the presence of compound compared with that phosphorylated in the presence of DMSO vehicle alone (HI control) was calculated using the formula: % control (POC)=(compound−average LO)/(average HI−average LO)*100. Data (consisting of POC and inhibitor concentration in μM) was fitted to a 4-parameter equation (y=A+((B−A)/(1+((x/C)^D))), where A is the minimum y (POC) value, B is the maximum y (POC), C is the x (compound concentration) at the point of inflection and D is the slope factor, using a Levenburg-Marquardt non-linear regression algorithm.
The inhibition constant (Ki) of the inhibitor was estimated from the IC50 (compound concentration at the point of inflection C) using the Cheng-Prussof equation: Ki=IC50/(1+S/Km), where S is the ATP substrate concentration, and Km is the Michaelis constant for ATP as determined experimentally. All results were expressed as the mean±the standard error of the mean. Data acquisition and non-linear regression algorithms were performed using Activity Base v5.2 and XL-fit software v4.1 respectively. All data was archived using Activity Base v5.2 software.

This is an account of results in US7846944B2, “Pyrazolo-pyridinone compounds and methods of use thereof” (Amgen Inc., priority 2007, dated 2010).

Like-named read-outs stand apart in the source and are kept apart here.

For the molecule `Cc1ccc(NC(=O)C2CC2)cc1-c1cc2cnn(-c3ccc(F)cc3F)c2n(C)c1=O` [Example 16, N-(3-(1-(2,4-difluorophenyl)-7-methyl-6-oxo-6,7-dihydro-1H-pyrazolo[3,4-b]pyridin-5-yl)-4-methylphenyl)cyclopropanecarboxamide], the IC50 in assay [1] (Homo sapiens) is ≤ 100 nM; in assay [1], 73.6 nM; in assay [2], ≤ 175 nM.

As for `Cc1ccc(NC(=O)NC2CC2)cc1-c1cc2cnn(-c3c(F)cccc3F)c2n(C)c1=O` [Example 36, 1-cyclopropyl-3-(3-(1-(2,6-difluorophenyl)-7-methyl-6-oxo-6,7-dihydro-1H-pyrazolo[3,4-b]pyridin-5-yl)-4-methylphenyl)urea], the IC50 is 261 nM in assay [1] (Homo sapiens) and ≤ 175 nM in assay [2].

Consider `Cc1ccc(N)cc1-c1cc2cnn(-c3ccc(F)cc3F)c2n(C)c1=O` [Example 37, 5-(5-amino-2-methylphenyl)-1-(2,4-difluorophenyl)-7-methyl-1,7-dihydro-6H-pyrazolo[3,4-b]pyridin-6-one], for which the IC50 is 326 nM in assay [1] (Homo sapiens) and ≤ 175 nM in assay [2].

For the molecule `Cc1ccc(C(=O)O)cc1-c1cc2cnn(-c3c(F)cccc3F)c2n(C)c1=O` [Example 38, 3-(1-(2,6-difluorophenyl)-7-methyl-6-oxo-6,7-dihydro-1H-pyrazolo[3,4-b]pyridin-5-yl)-4-methylbenzoic acid], the results for the IC50 (on recombinant human p38α; in assay [1] (Homo sapiens)) were 704 nM and ≥ 2500 nM, respectively.

For the molecule `Cc1ccc(N)cc1-c1cc2cnn(-c3c(F)cccc3F)c2n(C)c1=O` [Example 39, 5-(5-amino-2-methylphenyl)-1-(2,6-difluorophenyl)-7-methyl-1,7-dihydro-6H-pyrazolo[3,4-b]pyridin-6-one], the results for the IC50 in assay [1] (Homo sapiens), in assay [1] and in assay [2] were ≤ 100 nM, 60 nM and ≤ 175 nM, respectively.

`Cc1ccc(I)cc1-c1cc2cnn(-c3c(F)cccc3F)c2n(C)c1=O` [Example 40, 1-(2,6-difluorophenyl)-5-(5-iodo-2-methylphenyl)-7-methyl-1,7-dihydro-6H-pyrazolo[3,4-b]pyridin-6-one]: the IC50 in assay [1] (Homo sapiens) was ≥ 2500 nM.

Take `Cc1ccc(C(=O)O)cc1-c1cc2cnn(-c3ccc(F)cc3F)c2n(C)c1=O` [Example 41, 3-(1-(2,4-difluorophenyl)-7-methyl-6-oxo-6,7-dihydro-1H-pyrazolo[3,4-b]pyridin-5-yl)-4-methylbenzoic acid]: the IC50 on recombinant human p38α is 1000 nM; in assay [1] (Homo sapiens), ≥ 2500 nM; in assay [2] it was ≤ 175 nM.

Regarding `Cn1c(=O)c(-c2cc(C(=O)O)ccc2Cl)cc2cnn(-c3c(F)cccc3F)c21` [Example 42, 4-chloro-3-(1-(2,6-difluorophenyl)-7-methyl-6-oxo-6,7-dihydro-1H-pyrazolo[3,4-b]pyridin-5-yl)benzoic acid], the IC50 is ≥ 2500 nM in assay [1] (Homo sapiens) and ≤ 175 nM in assay [2].

As to `Cc1ccc(I)cc1-c1cc2cnn(-c3ccc(F)cc3F)c2n(C)c1=O` [Example 43, 1-(2,4-difluorophenyl)-5-(5-iodo-2-methylphenyl)-7-methyl-1,7-dihydro-6H-pyrazolo[3,4-b]pyridin-6-one], the IC50 in assay [1] (Homo sapiens) is ≥ 2500 nM.

As for `COc1ccc(C(F)(F)F)cc1NC(=O)c1ccc(C)c(-c2cc3cnn(-c4c(F)cccc4F)c3n(C)c2=O)c1` [Example 45, 3-(1-(2,6-difluorophenyl)-7-methyl-6-oxo-6,7-dihydro-1H-pyrazolo[3,4-b]pyridin-5-yl)-4-methyl-N-(2-(methyloxy)-5-(trifluoromethyl)phenyl)benzamide], the IC50 at recombinant human p38α is 7.8 nM; in assay [1] (Homo sapiens), ≥ 2500 nM; in assay [2] it was ≤ 175 nM.

With `Cc1ccc(C(=O)NC2CC2)cc1-c1cc2cnn(S(=O)(=O)C3CC3)c2n(C)c1=O` [Example 47, N-cyclopropyl-3-(1-(cyclopropylsulfonyl)-7-methyl-6-oxo-6,7-dihydro-1H-pyrazolo[3,4-b]pyridin-5-yl)-4-methylbenzamide], the IC50 in assay [1] (Homo sapiens) stood at 662 nM.

For the molecule `Cn1c(=O)c(-c2cc(N)ccc2Cl)cc2cnn(-c3c(F)cccc3F)c21` [Example 48, 5-(5-amino-2-chlorophenyl)-1-(2,6-difluorophenyl)-7-methyl-1,7-dihydro-6H-pyrazolo[3,4-b]pyridin-6-one], the IC50 is 327 nM in assay [1] (Homo sapiens) and ≤ 175 nM in assay [2].

Regarding “N-cyclopropyl-3-(1-(2,4-difluorophenyl)-7-methyl-6-thioxo-6,7-dihydro-1H-pyrazolo[3,4-b]pyridin-5-yl)-4-methylbenzenecarbothioamide [Example 51]”, the IC50 in assay [1] was 225 nM.
